Counter-ions that a name gives are not always drawn.
Target: T1, PTPMT1 (Protein Tyrosine Phosphatase localized to the Mitochondrion 1) (Homo sapiens, UniProt Q8WUK0)
T1 construct: human PTPMT1 open reading frame cloned into pGEX-KG, purified using glutathione-conjugated sepharose
T1 sequence (Q8WUK0 1-201): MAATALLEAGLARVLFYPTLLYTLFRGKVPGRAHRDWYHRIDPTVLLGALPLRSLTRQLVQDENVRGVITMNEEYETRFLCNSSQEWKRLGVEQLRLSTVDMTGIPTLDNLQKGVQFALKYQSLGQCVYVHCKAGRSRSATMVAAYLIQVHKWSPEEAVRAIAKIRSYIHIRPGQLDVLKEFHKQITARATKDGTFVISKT
Assay: in vitro phosphatase assay with recombinant enzyme, OMFP substrate, fluorescence readout
Type: biochemical

IC50: 2500 nM
Structure (SMILES): CCCCC(CC)CNC(=N)NC(=N)NCCCCCCNC(=N)NC(=N)NCC(CC)CCCC (stereo not shown) [alexidine dihydrochloride]

— paper PMC3542197, “Downregulation of the Mitochondrial Phosphatase PTPMT1 Is Sufficient to Promote Cancer Cell Death” (PLoS ONE, 2013)
